“And” between values parts separate entries of the source, which are not always exact repeats. Equal values may be shown once.
What was measured:
EGFR-TK [1] = target: T1, EGFR-TK (Homo sapiens, UniProt P00533); assay: Inhibitory potency against EGFR-TK (SignaTECT protein kinase assay, [32P]ATP phosphorylation); assay type: biochemical; design: The EGF receptor used was an immunopurified receptor from human A431 cells (Promega, WI); purchased Promega; host or cells: A431 cells (endogenous receptor, immunopurified); conditions: immunopurified EGF receptor from human A431 cells, inhibition of phosphorylation by [32P]ATP, triplicate
Protocol: The inhibitory potency of the new derivatives against EGFR-TK was measured using a Signa TECT® Protein Kinase Assay System (Promega, WI) according to the protein tyrosine kinase assay protocol of the attached document. The EGF receptor used was an immunopurified receptor from human A431 cells (Promega, WI). […] The reaction was allowed to proceed for 10 min at 30 °C and then was stopped by the addition of guanidine hydrochloride solution (7.5 M, 13 μL). Each reaction mixture (12.5 μL) was spotted onto a biotin capture membrane. After all of the samples had been spotted, they were washed and rinsed as follows: 1 time for 30 s with 200 mL of 2 M NaCl, 3 times for 2 min each with 200 mL of 2 M NaCl, 4 times for 2 min each with 200 mL of 2 M NaCl in 1 % H3PO4, and 2 times for 30 s each with 100 mL of deionized water. The biotin capture membranes were dried on a piece of aluminum foil under a heat lamp for 5–10 min. The radioactivity trapped on the biotin capture membranes was counted with a liquid scintillation counter in 10 mL of scintillation fluid. The IC50 values were determined from sigmoid curves of the percent inhibition of [^32P]ATP radioactivity.
The inhibitory potency of new phenoxyquinazoline derivatives against EGFR-TK in A431 cell membranes was measured as the inhibition of EGFR phosphorylation by [^32P]ATP.

EGFR-TK [2] = target: T1, EGFR-TK; conditions: inhibitor 1 μM, A431 P2 membranes, 60 min, 25 °C
From the text: The difference between non-treatment and pretreatment data was examined by Student’s paired t test.

[3] = system: A431 epidermoid carcinoma cell line; conditions: in vitro; ref [12], [13]; read-out: IC50, cytotoxicity A431 epidermoid carcinoma cell line; cited from earlier work
EGFR-TK [4] = system: EGFR-TK; design: method as in PMID 21058048, PMID 22354330; conditions: ref [21], [22]; cited from earlier work
A431 tumor = assay: Tumor uptake of radioiodinated ligands in A431 tumor-bearing mice; assay type: in vivo, balb/c nude mice; conditions: A431 tumor-bearing mice; for accumulation in tumors: i.v., 1 h post injection
Protocol: A suspension of 1 × 10^7 A431 cells in 0.1 mL of medium was inoculated subcutaneously in male balb/c nude mice (4 weeks old, 20–25 g, n = 3). After approximately 2 weeks, when the solid tumor had grown to optimal size, the mice were used for tumor uptake studies. [^125I]6a–d (37 kBq, 74 TBq/mmol) in 0.1 mL of saline was injected intravenously into tumor-bearing mice via the lateral tail vein. At 1 or 24 h after administration, the animals were sacrificed. Samples of tumor were excised and weighed. Radioactivity was measured using a well-type NaI(Tl) scintillation gamma counter. The results were expressed in terms of percentage of injected dose per gram of tumor.

[5] = design: method as in PMID 21058048, PMID 22354330; conditions: ref [21], [22]; cited from earlier work
[6] = target: EGFR-TK in A431 cell membranes (Homo sapiens, UniProt P00533); assay type: binding; conditions: A431 P2 membranes, Scatchard analysis
Protocol: Assays were carried out as described in the previous section. Crude P2 membrane fractions (A431or NALM6, 0.1 mg of protein, 10 μL) and [^125I]PYK (1–300 nM, 100 μL, 0.74 kBq) were used. […] Specific binding was defined as the difference between the total and non-specific binding. Scatchard plot analysis of the saturation binding data was used to determine the equilibrium dissociation constant (K d) and the maximal number of binding sites (B max).
The crude P2 membrane fraction from A431 or NAlM6 cells were used in further binding experiments for pharmacological characterization. […] While, in the NALM6 as a negative-EGFR leukemia cell line, [^125I]PYK binding to cell membranes was undetectable.

T1 sequence (P00533 25-1210): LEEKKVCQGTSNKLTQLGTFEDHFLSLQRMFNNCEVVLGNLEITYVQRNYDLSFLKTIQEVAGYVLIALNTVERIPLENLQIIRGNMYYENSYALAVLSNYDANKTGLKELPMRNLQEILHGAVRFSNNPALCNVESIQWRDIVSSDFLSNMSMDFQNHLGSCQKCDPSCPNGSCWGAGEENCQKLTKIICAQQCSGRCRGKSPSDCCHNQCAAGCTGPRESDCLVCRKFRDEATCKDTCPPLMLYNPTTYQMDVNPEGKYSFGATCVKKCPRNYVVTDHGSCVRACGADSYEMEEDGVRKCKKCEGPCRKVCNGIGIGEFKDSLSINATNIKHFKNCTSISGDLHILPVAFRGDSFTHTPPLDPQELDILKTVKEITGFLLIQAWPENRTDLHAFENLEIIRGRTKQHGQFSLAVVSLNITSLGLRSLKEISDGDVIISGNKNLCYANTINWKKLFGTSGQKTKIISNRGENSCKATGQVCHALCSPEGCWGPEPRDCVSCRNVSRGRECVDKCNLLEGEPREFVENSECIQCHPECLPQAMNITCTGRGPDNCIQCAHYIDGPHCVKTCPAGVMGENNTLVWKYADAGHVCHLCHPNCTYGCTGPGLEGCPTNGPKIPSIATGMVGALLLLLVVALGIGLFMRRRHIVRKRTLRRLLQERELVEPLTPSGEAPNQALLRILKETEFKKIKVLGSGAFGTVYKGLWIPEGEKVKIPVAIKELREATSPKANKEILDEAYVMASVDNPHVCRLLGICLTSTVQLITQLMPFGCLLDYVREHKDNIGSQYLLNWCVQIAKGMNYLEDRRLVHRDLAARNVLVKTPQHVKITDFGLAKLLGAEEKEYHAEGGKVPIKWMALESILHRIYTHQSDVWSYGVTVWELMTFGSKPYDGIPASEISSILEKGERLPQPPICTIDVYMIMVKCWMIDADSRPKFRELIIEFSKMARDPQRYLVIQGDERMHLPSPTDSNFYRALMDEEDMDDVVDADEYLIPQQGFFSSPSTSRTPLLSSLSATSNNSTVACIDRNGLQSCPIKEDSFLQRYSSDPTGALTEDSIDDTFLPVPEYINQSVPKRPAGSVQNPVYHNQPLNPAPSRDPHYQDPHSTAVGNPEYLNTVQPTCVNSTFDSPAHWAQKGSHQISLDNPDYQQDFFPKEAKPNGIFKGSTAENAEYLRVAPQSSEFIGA
EGFR-TK in A431 cell membranes, sequence (P00533 25-1210): as above

Row | Structure (SMILES) | melting point [°C] | IC50 (EGFR-TK [1]) | further results
1 | CCOc1cc2ncnc(Oc3cccc(I)c3)c2cc1OCCCN1CCOCC1 [6a, 6-(3-Morpholinopropoxy)-7-ethoxy-4-(3′-iodophenoxy)quinazoline] | 135 to 137 | 12 ± 3.9 nM | 
2 | O=P(O)(O)C(O)c1ccc2ccccc2c1 (centres unmarked) [HNMPA] |  |  | blocking effect on [125I]PYK binding to EGFR-TK (EGFR-TK [2]): failed to block
3 | COc1cc2ncnc(Nc3cccc(Br)c3)c2cc1OC [PD153035, 4-(3-bromoanilino)-6,7-dimethoxyquinazoline] |  |  | IC50 [3]: 0.029 nM
4 | CCOc1cc2ncnc(Oc3cccc(I)c3)c2cc1OCC [PHY, 4-(3-Iodophenoxy)-6,7-diethoxyquinazoline, reference compound] |  | 49 ± 7.2 nM | IC50 (EGFR-TK [4]): 49 ± 7.2 nM
5 | CCOc1cc2ncnc(Oc3cccc([125I])c3)c2cc1OCCCN(C)C [[^125I]6d] |  |  | retention in tumors (in words) (A431 tumor; 24 h after injection): low retention; accumulation in tumors (A431 tumor): 0.55 ± 0.12 % ID/g tissue
6 | CCOc1cc2ncnc(Oc3cccc([125I])c3)c2cc1OCC [[^125I]PHY] |  |  | tumor-to-blood ratio [5]: 0.94–1.50; tumor-to-muscle ratio [5]: 1.02–1.95; accumulation in tumors (A431 tumor): 0.56 ± 0.12 % ID/g tissue
7 | CCOc1cc2ncnc(Oc3cccc(I)c3)c2cc1OCCCN1CCOCC1 [[^125I]PYK] |  |  | Kd [6]: 51.3 ± 11.1 nM
8 | CCOc1cc2ncnc(Nc3cccc(I)c3)c2cc1OCC [m-IPQ, 4-(3-Iodoanilino)-6,7-diethoxyquinazoline] |  |  | IC50 (EGFR-TK [4]): 50.5 ± 3.5 nM; blocking effect on [125I]PYK binding to EGFR-TK (EGFR-TK [2]): significant reduction

Now from value to molecule, other results behind:

Row | melting point [°C] | IC50 (EGFR-TK [1]) | Structure (SMILES) | further results
9 |  | 16.5 ± 1.8 nM | CCOc1cc2ncnc(Oc3cccc(I)c3)c2cc1OCCCN1CCN(C)CC1 [6b, 6-[3-(4-Methylpiperazinylpropoxy)]-7-ethoxy-4-(3′-iodophenoxy)quinazoline] | 
10 | 59 to 62 | 41.5 nM and 113 nM | CCOc1cc2ncnc(Oc3cccc(I)c3)c2cc1OC(C)C [6c, 6-Isopropoxy-7-ethoxy-4-(3′-iodophenoxy)quinazoline] | 
11 | 64 to 67 | 113 nM and 41.5 nM | CCOc1cc2ncnc(Oc3cccc(I)c3)c2cc1OCCCN(C)C [6d, 6-(3-Dimethylaminopropoxy)-7-ethoxy-4-(3′-iodophenoxy) quinazoline] | 
12 | 108 to 109 | > 500 nM | CCOc1cc2ncnc(Oc3cccc(I)c3)c2cc1OCCCc1ccccc1 [6e, 6-(3-Phenylpropoxy)-7-ethoxy-4-(3′-iodophenoxy)quinazoline] | 
13 | 140 to 142 | > 500 nM | CCOc1cc2ncnc(Oc3cccc(I)c3)c2cc1OCc1ccccc1 [6f, 6-Benzyloxy-7-ethoxy-4-(3′-iodophenoxy)quinazoline] | 

From PMC3672506, “A useful EGFR-TK ligand for tumor diagnosis with SPECT: development of radioiodinated 6-(3-morpholinopropoxy)-7-ethoxy-4-(3′-iodophenoxy)quinazoline” (Annals of Nuclear Medicine, 2013)
